Laboratory results as given in ChEMBL document CHEMBL1909046, “DrugMatrix in vitro pharmacology data”.

Legend:
[1] = DRUGMATRIX: GABAA, Muscimol, Central radioligand binding (ligand: [3H] Muscimol); assay type: cell membranes, Rattus norvegicus, Wistar, Brain, Membrane; details: Not Active = under 50% inhibition at 10 µM
[2] = molecular target: Sigma non-opioid intracellular receptor 1 (Homo sapiens, UniProt Q99720); test: DRUGMATRIX: Sigma1 radioligand binding (ligand: [3H] Haloperidol); assay type: cell membranes, Jurkat, Membrane; details: jurkat; Not Active = under 50% inhibition at 10 µM
Chain of Sigma non-opioid intracellular receptor 1 (Q99720 whole entry): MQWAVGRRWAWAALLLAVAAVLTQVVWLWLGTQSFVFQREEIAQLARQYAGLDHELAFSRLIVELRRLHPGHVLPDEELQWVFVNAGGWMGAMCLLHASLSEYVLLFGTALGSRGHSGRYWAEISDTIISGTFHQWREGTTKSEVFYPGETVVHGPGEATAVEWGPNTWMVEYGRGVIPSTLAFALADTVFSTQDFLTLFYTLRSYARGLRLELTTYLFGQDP

[3] = DRUGMATRIX: Calcium Channel Type L, Phenylalkylamine radioligand binding (ligand: [3H] (-)-Desmethoxyverapamil (D-888)); assay type: cell membranes, Rattus norvegicus, Wistar, Brain, Membrane; details: Not Active = under 50% inhibition at 10 µM
[4] = DRUGMATRIX: Phorbol Ester radioligand binding (ligand: [3H] PDBu); assay type: cell membranes, Mus musculus, ICR, Brain, Membrane; details: Not Active = under 50% inhibition at 10 µM
[5] = molecular target: T1, Alpha-1B adrenergic receptor (Rattus norvegicus, UniProt P15823); test: DRUGMATRIX: Alpha-1B adrenergic receptor radioligand binding (ligand: prazosin); assay type: cell membranes, Wistar, Liver, Membrane; details: Not Active = under 50% inhibition at 10 µM
T1 sequence (P15823 whole entry): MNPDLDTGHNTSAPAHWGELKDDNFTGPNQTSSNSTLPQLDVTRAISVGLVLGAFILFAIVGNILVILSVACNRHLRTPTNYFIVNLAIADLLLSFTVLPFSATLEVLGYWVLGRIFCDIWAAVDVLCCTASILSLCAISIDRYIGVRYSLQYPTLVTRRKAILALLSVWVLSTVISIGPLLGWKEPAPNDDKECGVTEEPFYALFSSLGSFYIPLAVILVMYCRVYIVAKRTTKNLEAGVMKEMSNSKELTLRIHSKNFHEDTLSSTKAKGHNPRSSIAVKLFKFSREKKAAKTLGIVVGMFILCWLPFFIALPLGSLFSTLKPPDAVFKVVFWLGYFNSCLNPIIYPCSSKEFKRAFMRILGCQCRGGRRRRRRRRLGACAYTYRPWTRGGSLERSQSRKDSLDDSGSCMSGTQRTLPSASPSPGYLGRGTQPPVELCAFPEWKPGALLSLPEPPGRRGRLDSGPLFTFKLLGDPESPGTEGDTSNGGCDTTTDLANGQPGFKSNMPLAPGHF

[6] = DRUGMATRIX: Calcium Channel Type L, Dihydropyridine radioligand binding (ligand: [3H] Nitrendipine); assay type: cell membranes, Rattus norvegicus, Wistar, Cerebral cortex, Membrane; details: Not Active = under 50% inhibition at 10 µM
[7] = molecular target: Matrix metalloproteinase-9 (Homo sapiens, UniProt P14780); assay type: cell-based;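 further: inhibition of isolated MMP-9 enzyme activity toward a synthetic peptide substrate, from the DrugMatrix protease screening panel; in other assays of this panel Not Active means under 50% inhibition at 10 µM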
Chain of Matrix metalloproteinase-9 (P14780 whole entry): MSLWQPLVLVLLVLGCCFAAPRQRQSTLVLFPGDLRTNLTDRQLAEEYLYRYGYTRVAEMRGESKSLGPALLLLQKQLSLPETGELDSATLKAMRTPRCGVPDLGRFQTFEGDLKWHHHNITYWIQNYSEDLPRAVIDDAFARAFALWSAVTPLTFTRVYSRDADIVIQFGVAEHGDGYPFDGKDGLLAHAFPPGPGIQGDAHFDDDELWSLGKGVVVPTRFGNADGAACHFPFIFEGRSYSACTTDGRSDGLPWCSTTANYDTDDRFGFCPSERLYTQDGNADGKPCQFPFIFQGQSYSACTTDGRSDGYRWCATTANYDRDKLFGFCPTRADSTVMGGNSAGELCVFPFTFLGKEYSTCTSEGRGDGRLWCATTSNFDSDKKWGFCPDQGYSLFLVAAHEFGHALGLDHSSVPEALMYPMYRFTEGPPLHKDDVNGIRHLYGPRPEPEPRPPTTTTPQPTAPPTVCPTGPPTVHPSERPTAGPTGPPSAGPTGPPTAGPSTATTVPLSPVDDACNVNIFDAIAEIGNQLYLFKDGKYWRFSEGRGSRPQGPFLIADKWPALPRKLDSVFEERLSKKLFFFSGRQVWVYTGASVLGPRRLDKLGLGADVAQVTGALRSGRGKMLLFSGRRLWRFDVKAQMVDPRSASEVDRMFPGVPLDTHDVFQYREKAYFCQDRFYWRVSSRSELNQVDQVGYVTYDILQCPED

Adenosine receptor A3 = molecular target: T2, Adenosine receptor A3 (Homo sapiens, UniProt P0DMS8); assay type: cell membranes, CHO-K1, Membrane; details: cho-k1;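 further: radioligand binding assay with AB-MECA serving as the labeled ligand; in other assays of this panel Not Active means under 50% inhibition at 10 µM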
T2 sequence (P0DMS8 whole entry): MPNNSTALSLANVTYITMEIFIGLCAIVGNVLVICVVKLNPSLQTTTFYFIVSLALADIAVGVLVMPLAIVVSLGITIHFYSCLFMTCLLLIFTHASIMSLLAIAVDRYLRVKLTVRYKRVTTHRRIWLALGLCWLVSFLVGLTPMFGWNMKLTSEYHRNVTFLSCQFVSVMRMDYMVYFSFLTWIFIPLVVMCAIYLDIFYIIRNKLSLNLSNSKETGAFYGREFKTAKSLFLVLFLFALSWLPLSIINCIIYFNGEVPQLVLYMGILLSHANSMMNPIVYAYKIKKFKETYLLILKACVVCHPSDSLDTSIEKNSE

[8] = DRUGMATRIX: Tumor Necrosis Factor (TNF), Non-Selective radioligand binding (ligand: [125I] TNF-alpha); assay type: cell membranes, Membrane; details: u-937; Not Active = under 50% inhibition at 10 µM
Cytochrome P450 2C9 = Cytochrome P450 2C9 (Homo sapiens, UniProt P11712); details: bti-tn-5b1-4; further: in other assays of this panel Not Active means under 50% inhibition at 10 µM
Chain of Cytochrome P450 2C9 (P11712 whole entry): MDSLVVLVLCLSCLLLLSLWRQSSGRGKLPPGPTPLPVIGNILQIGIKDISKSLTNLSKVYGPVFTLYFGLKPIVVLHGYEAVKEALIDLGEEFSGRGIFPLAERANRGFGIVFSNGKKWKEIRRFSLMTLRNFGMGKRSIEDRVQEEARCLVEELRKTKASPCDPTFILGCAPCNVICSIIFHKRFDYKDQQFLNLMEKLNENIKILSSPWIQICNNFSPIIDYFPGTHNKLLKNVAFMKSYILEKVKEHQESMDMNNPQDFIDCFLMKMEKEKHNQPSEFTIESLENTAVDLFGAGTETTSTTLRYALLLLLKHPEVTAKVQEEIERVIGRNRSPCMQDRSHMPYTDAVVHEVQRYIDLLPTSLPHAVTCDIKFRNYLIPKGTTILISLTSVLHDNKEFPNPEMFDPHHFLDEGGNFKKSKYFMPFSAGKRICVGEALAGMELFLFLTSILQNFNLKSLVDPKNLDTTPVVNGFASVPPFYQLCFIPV

[9] = DRUGMATRIX: ATPase, Na+/K+ enzyme inhibition (substrate: ATP); assay type: tissue-based, Sus scrofa, Heart; details: Not Active = under 50% inhibition at 10 µM
[10] = molecular target: T3, 5-hydroxytryptamine receptor 2C (Homo sapiens, UniProt P28335); test: DRUGMATRIX: Serotonin (5-Hydroxytryptamine) 5-HT2C radioligand binding (ligand: [3H] Mesulergine); assay type: cell membranes, CHO-K1, Membrane; details: cho-k1; Not Active = under 50% inhibition at 10 µM
T3 sequence (P28335 whole entry): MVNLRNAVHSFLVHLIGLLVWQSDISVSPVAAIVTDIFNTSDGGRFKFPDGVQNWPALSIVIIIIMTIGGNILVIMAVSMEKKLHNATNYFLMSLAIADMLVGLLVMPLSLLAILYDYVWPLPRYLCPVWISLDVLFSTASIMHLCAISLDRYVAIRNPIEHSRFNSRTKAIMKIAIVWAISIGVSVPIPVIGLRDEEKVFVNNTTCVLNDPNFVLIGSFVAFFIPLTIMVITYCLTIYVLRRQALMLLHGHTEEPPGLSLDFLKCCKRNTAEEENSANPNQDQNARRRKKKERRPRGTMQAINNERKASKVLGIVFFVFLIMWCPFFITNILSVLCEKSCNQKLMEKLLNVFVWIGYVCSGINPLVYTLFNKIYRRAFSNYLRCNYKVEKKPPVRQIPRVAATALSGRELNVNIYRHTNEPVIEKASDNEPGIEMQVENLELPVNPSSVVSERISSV

Calcitonin receptor = molecular target: T4, Calcitonin receptor (Homo sapiens, UniProt P30988); assay type: cell membranes, Membrane; details: t47d; further: in other assays of this panel Not Active means under 50% inhibition at 10 µM
T4 sequence (P30988 whole entry): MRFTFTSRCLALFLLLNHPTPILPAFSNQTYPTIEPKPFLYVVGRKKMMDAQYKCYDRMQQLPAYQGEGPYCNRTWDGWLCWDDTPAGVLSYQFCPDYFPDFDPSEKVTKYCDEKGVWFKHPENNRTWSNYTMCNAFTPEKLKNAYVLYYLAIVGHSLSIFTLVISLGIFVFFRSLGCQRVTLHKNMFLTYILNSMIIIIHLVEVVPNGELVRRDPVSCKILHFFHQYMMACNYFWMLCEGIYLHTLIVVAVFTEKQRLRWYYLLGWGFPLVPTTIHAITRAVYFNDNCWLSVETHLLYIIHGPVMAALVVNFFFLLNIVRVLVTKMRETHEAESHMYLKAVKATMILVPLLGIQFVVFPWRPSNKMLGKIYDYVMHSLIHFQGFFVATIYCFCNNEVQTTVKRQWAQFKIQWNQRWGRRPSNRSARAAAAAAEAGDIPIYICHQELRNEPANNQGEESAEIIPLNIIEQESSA

Cytochrome P450 2D6 = Cytochrome P450 2D6 (Homo sapiens, UniProt P10635); details: bti-tn-5b1-4; further: in other assays of this panel Not Active means under 50% inhibition at 10 µM
Chain of Cytochrome P450 2D6 (P10635 whole entry): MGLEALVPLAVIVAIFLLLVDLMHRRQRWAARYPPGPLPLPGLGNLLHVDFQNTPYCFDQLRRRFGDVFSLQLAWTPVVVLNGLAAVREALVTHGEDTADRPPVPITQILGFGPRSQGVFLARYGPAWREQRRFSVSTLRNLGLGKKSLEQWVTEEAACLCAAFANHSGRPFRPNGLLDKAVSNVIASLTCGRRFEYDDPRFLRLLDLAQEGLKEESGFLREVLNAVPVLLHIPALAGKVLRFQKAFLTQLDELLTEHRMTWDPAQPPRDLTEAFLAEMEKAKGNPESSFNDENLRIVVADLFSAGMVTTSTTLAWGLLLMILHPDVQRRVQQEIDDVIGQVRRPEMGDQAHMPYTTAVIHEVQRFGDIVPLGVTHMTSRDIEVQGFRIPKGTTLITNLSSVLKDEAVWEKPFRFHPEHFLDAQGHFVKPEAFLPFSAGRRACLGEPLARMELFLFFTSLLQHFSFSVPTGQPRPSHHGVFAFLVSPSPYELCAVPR

CC1(C)S[C@@H]2[C@H](NC(=O)[C@H](N)c3ccc(O)cc3)C(=O)N2[C@H]1C(=O)O [AMOXICILLIN]
Not Active: IC50 [1] | Ki [1] | IC50 [2] | IC50 [3] | Ki [3] | IC50 [4] | Ki [4] | IC50 [5] | IC50 [6] | Ki [6] | IC50 [7] | IC50 (Adenosine receptor A3) | IC50 [8] | Ki [8] | IC50 (Cytochrome P450 2C9) | Ki (Cytochrome P450 2C9) | IC50 [9] | Ki [9] | IC50 [10] | IC50 (Calcitonin receptor) | IC50 (Cytochrome P450 2D6) | Ki (Cytochrome P450 2D6)

CCOC(=O)OC(C)OC1=C(C(=O)Nc2ccccn2)N(C)S(=O)(=O)c2ccccc21 (centres undefined) [AMPIROXICAM]
Not Active: IC50 [1] | Ki [1] | IC50 [2] | IC50 [3] | Ki [3] | IC50 [4] | Ki [4] | IC50 [5] | IC50 [6] | Ki [6] | IC50 [7] | IC50 (Adenosine receptor A3) | IC50 [8] | Ki [8] | IC50 (Cytochrome P450 2C9) | Ki (Cytochrome P450 2C9) | IC50 [9] | Ki [9] | IC50 [10] | IC50 (Calcitonin receptor) | IC50 (Cytochrome P450 2D6) | Ki (Cytochrome P450 2D6)

N#C[C@H](O[C@@H]1O[C@H](CO[C@@H]2O[C@H](CO)[C@@H](O)[C@H](O)[C@H]2O)[C@@H](O)[C@H](O)[C@H]1O)c1ccccc1 [AMYGDALIN]
Not Active: IC50 [1] | Ki [1] | IC50 [2] | IC50 [3] | Ki [3] | IC50 [4] | Ki [4] | IC50 [5] | IC50 [6] | Ki [6] | IC50 [7] | IC50 (Adenosine receptor A3) | IC50 [8] | Ki [8] | IC50 (Cytochrome P450 2C9) | Ki (Cytochrome P450 2C9) | IC50 [9] | Ki [9] | IC50 [10] | IC50 (Calcitonin receptor) | IC50 (Cytochrome P450 2D6) | Ki (Cytochrome P450 2D6)

N=C(N)NCCCCNC(=N)N.O=S(=O)(O)O [ARCAINE SULFATE]
Not Active: IC50 [1] | Ki [1] | IC50 [2] | IC50 [3] | Ki [3] | IC50 [4] | Ki [4] | IC50 [5] | IC50 [6] | Ki [6] | IC50 [7] | IC50 (Adenosine receptor A3) | IC50 [8] | Ki [8] | IC50 (Cytochrome P450 2C9) | Ki (Cytochrome P450 2C9) | IC50 [9] | Ki [9] | IC50 [10] | IC50 (Calcitonin receptor) | IC50 (Cytochrome P450 2D6) | Ki (Cytochrome P450 2D6)

C=C1[C@@H]2CCC3[C@@](CC[C@@H]4[C@H](C(=O)O)C[C@@H](O[C@@H]5O[C@H](CO)[C@@H](OS(=O)(=O)[O-])[C@H](OS(=O)(=O)[O-])[C@H]5OC(=O)CC(C)C)C[C@@]34C)(C2)[C@@H]1O.[K+].[K+] (some centres undefined) [ATRACTYLOSIDE]
Not Active: IC50 [1] | Ki [1] | IC50 [2] | IC50 [3] | Ki [3] | IC50 [4] | Ki [4] | IC50 [5] | IC50 [6] | Ki [6] | IC50 [7] | IC50 (Adenosine receptor A3) | IC50 [8] | Ki [8] | IC50 (Cytochrome P450 2C9) | Ki (Cytochrome P450 2C9) | IC50 [9] | Ki [9] | IC50 [10] | IC50 (Calcitonin receptor) | IC50 (Cytochrome P450 2D6) | Ki (Cytochrome P450 2D6)

Cn1cnc([N+](=O)[O-])c1Sc1ncnc2nc[nH]c12 [AZATHIOPRINE]
Not Active: IC50 [1] | Ki [1] | IC50 [2] | IC50 [3] | Ki [3] | IC50 [4] | Ki [4] | IC50 [5] | IC50 [6] | Ki [6] | IC50 [7] | IC50 (Adenosine receptor A3) | IC50 [8] | Ki [8] | IC50 (Cytochrome P450 2C9) | Ki (Cytochrome P450 2C9) | IC50 [9] | Ki [9] | IC50 [10] | IC50 (Calcitonin receptor) | IC50 (Cytochrome P450 2D6) | Ki (Cytochrome P450 2D6)

CC1(C)S[C@@H]2[C@H](NC(=O)[C@H](NC(=O)N3CCNC3=O)c3ccccc3)C(=O)N2[C@H]1C(=O)O [AZLOCILLIN]
Not Active: IC50 [1] | Ki [1] | IC50 [2] | IC50 [3] | Ki [3] | IC50 [4] | Ki [4] | IC50 [5] | IC50 [6] | Ki [6] | IC50 [7] | IC50 (Adenosine receptor A3) | IC50 [8] | Ki [8] | IC50 (Cytochrome P450 2C9) | Ki (Cytochrome P450 2C9) | IC50 [9] | Ki [9] | IC50 [10] | IC50 (Calcitonin receptor) | IC50 (Cytochrome P450 2D6) | Ki (Cytochrome P450 2D6)
